In patent publication US12202835B2, “Substituted aromatic ring-linked dioxinoquinazolines and dioxinoquinolines as kinase inhibitors” (BEIJING SCITECH-MQ PHARMACEUTICALS LIMITED, priority 2018, dated 2025):

Columns and labels:
Type in all cases: biochemical
MER kinase = MER kinase (Homo sapiens (Human), UniProt Q12866); assay: Assay of small molecular compounds for inhibiting the activity of MER kinase (LANCE TR-FRET)
Procedure: The assay of small molecular compounds for inhibiting the activity of MER kinase is based on the LANCE TR-FRET technology of Perkin Elmer Inc., and the assay method is as follows: • 1. Dilution of compounds: a total of 11 concentrations were obtained using a 3-fold gradient dilution from the highest concentration of 2500 nM (the maximum final concentration of the drug used in this assay was 2500 nM, and the minimum final concentration was 0.042 nM). • 2. 2.5 μL of the gradient-diluted compounds were taken with a transfer pipette to a 384-well plate. • 3. Addition of enzyme: 5 μL of 2×MER kinase solution (with a concentration of 1 nM) was taken with a transfer pipette to the corresponding reaction well of the 384-well plate, mixed well and pre-reacted at room temperature for 5 minutes. • 4. 2.5 μL 4× ULight-labeled Ploy GT (with a concentration of 200 nM)/ATP (with a concentration of 20 μM) mixture was taken with a transfer pipette to the corresponding reaction well of the 384-well plate. • 5. Negative control: 2.5 μL/well 4× substrate/ATP mixture and 7.5 μL 1× Kinase Assay Buffer were added to the wells of the 384-well plate.
(§1) Positive control: 2.5 μL/well 4× substrate/ATP mixture, 2.5 μL/well 1× Kinase Assay Buffer containing 4% DMSO, and 5 μL/well 2×MER kinase solution were added to the 384-well plate. The final concentration of DMSO in the reaction system was 1%. • 6. The mixture was mixed well and then centrifuged and reacted at room temperature in dark for 60 min. • 7. Termination of the enzymatic reaction: 5 μL of 4× stop solution was taken with a transfer pipette to the wells of the 384-well plate, mixed and then centrifuged, and reacted at room temperature for 5 min. • 8. Development of the reaction: 5 μL of 4× detection solution was taken with a transfer pipette to the wells of the 384-well plate for color development, and the mixture was mixed and then centrifuged and reacted at room temperature for 60 min. • 9. The 384-well plate was placed into the Envision plate reader and the signal was detected using the appropriate program. • 10. Analysis and processing of the raw data:
The drug concentrations and the corresponding inhibition rates were input into GraphPad Prism5 for calculation, and the inhibition rate of the compounds were calculated as follows: inhibition rate (%)=(reading of positive well−reading of experimental well)/(reading of positive control well−reading of negative control well)×100%. Processing with GraphPad Prism5 software yielded the corresponding IC50 values (the concentration of the compound at which 50% of the highest inhibition of the enzyme is achieved).

c-MET kinase = c-MET kinase (Homo sapiens (Human), UniProt P08581); assay: Assay of small molecular compounds for inhibiting the activity of c-MET kinase (LANCE TR-FRET); conditions: read-out: CMET IC50
Procedure: The assay is based on the LANCE TR-FRET technology of Perkin Elmer Inc., and the assay method is as follows: • 1. Dilution of compounds: a total of 11 concentrations were obtained using a 3-fold gradient dilution from the highest concentration of 2500 nM (the maximum final concentration of the drug used in this assay was 2500 nM, and the minimum final concentration was 0.042 nM). • 2. 2.5 μL of the gradient-diluted compounds were taken with a transfer pipette to a 384-well plate. • 3. Addition of enzyme: 5 μL of 2×c-MET kinase solution (with a concentration of 2 nM) was taken with a transfer pipette to the corresponding reaction well of the 384-well plate, mixed well and pre-reacted at room temperature for 5 minutes. • 4. 2.5 μL 4× Ultra ULight™-JAK-1 (Tyr1023) Peptide (with a concentration of 400 nM)/ATP (with a concentration of 40 μM) mixture was taken with a transfer pipette to the corresponding reaction well of the 384-well plate. • 5. Negative control: 2.5 μL/well 4× substrate/ATP mixture and 7.5 μL 1× Kinase Assay Buffer were added to the wells of the 384-well plate. • 6. Positive control: 2.5 μL/well 4× substrate/ATP mixture, 2.5 μL/well 1× Kinase Assay Buffer containing 16% DMSO, and 5 μL/well 2× c-MET kinase solution were added to the 384-well plate. The final concentration of DMSO in the reaction system was 4%. • 7. The mixture was mixed well and then centrifuged and reacted at room temperature in dark for 60 min. • 8. Termination of the enzymatic reaction: 5 μL of 4× stop solution was taken with a transfer pipette to the wells of the 384-well plate, mixed and then centrifuged, and reacted at room temperature for 5 min. • 9. Development of the reaction: 5 μL of 4× detection solution was taken with a transfer pipette to the wells of the 384-well plate for color development, and the mixture was mixed and then centrifuged and reacted at room temperature for 60 min. • 10. The 384-well plate was placed into the Envision plate reader and the signal was detected using the appropriate program. • 11. Analysis and processing of the raw data: • 12. The drug concentrations and the corresponding inhibition rates were input into GraphPad Prism5 for calculation, and the inhibition rate of the compounds were calculated as follows: inhibition rate (%)=(reading of positive well−reading of experimental well)/(reading of positive control well−reading of negative control well)×100%. Processing with GraphPad Prism5 software yielded the corresponding IC50 values (the concentration of the compound at which 50% of the highest inhibition of the enzyme is achieved).

TRKA kinase = TRKA kinase (Homo sapiens (Human), UniProt P04629); assay: Assay of small molecular compounds for inhibiting the activity of TRKA kinase (LANCE TR-FRET)
Procedure: The assay of small molecular compounds for inhibiting the activity of TRKA kinase is based on the LANCE TR-FRET technology of Perkin Elmer Inc., and the assay method is as follows: • 1. […] 2.5 μL of the gradient-diluted compounds were taken with a transfer pipette to a 384-well plate. • 3. Addition of enzyme: 5 μL of 2×TRKA kinase solution (with a concentration of 2 nM) was taken with a transfer pipette to the corresponding reaction well of the 384-well plate, mixed well and pre-reacted at room temperature for 5 minutes. • 4. 2.5 μL 4× Ultra ULight-labeled TK Peptide (with a concentration of 400 nM)/ATP (with a concentration of 40 μM) mixture was taken with a transfer pipette to the corresponding reaction well of the 384-well plate. • 5. Negative control: 2.5 μL/well 4× substrate/ATP mixture and 7.5 μL 1× Kinase Assay Buffer were added to the wells of the 384-well plate.
as §1, with “2×TRKA” for “2×MER”, “program.” for “program. • 10. Analysis and processing of the raw data:”

Sequence of c-MET kinase (P08581 25-1390): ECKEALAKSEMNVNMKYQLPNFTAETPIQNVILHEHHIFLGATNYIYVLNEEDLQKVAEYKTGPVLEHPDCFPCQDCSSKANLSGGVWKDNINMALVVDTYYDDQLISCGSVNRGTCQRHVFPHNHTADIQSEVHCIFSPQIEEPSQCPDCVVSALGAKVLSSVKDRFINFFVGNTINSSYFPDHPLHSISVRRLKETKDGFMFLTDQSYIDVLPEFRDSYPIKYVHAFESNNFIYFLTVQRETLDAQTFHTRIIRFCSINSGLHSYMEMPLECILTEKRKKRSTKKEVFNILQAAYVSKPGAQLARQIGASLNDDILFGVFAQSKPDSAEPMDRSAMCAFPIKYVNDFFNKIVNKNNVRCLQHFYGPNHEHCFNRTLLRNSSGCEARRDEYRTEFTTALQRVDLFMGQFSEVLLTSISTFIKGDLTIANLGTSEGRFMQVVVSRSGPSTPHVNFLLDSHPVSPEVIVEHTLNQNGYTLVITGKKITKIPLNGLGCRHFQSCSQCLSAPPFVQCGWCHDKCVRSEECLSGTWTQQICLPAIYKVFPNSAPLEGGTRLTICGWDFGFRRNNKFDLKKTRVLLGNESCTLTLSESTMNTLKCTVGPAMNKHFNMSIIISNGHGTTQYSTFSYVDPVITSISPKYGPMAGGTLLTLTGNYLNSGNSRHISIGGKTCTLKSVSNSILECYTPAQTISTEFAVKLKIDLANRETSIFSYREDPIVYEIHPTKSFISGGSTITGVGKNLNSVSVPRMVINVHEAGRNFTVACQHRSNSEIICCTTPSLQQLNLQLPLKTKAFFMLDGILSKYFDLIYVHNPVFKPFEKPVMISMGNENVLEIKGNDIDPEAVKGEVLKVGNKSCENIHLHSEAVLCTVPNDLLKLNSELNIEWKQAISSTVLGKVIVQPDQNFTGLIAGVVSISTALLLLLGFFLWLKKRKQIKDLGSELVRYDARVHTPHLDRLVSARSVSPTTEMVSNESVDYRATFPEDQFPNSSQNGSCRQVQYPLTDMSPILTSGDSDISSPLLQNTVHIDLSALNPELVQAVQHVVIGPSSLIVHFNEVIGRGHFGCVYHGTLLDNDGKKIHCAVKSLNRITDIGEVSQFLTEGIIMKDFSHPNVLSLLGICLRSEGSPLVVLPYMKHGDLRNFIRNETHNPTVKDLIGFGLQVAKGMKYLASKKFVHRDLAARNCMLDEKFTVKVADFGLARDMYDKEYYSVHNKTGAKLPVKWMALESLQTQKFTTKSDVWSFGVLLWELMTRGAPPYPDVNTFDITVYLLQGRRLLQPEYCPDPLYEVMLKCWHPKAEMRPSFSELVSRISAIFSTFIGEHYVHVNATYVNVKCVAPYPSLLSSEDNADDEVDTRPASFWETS
Sequence of MER kinase (Q12866 21-999): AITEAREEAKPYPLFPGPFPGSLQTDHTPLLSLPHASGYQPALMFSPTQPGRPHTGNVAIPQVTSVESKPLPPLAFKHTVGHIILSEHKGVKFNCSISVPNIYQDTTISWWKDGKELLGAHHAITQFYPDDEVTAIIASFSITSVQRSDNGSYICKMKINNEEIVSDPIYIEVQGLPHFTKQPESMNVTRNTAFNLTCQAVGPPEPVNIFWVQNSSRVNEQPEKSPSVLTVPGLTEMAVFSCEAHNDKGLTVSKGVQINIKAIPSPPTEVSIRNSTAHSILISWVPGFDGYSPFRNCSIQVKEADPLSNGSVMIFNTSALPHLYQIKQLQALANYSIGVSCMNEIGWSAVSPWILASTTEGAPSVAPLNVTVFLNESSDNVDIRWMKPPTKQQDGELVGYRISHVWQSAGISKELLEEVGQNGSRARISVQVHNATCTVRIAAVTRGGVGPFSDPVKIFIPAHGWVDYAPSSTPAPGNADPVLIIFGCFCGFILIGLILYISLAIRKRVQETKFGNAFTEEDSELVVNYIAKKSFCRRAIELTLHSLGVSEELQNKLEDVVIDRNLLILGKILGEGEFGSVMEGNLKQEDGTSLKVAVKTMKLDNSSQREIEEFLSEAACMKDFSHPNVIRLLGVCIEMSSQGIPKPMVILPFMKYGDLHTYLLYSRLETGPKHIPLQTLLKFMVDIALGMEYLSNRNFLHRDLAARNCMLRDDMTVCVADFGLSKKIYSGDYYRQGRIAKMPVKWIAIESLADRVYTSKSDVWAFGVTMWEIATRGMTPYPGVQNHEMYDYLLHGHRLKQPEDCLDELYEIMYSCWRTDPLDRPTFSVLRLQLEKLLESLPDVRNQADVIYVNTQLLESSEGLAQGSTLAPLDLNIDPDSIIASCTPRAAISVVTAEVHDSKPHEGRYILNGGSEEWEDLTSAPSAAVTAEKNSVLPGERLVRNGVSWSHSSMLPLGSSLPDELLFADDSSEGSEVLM
Sequence of TRKA kinase (P04629 33-796): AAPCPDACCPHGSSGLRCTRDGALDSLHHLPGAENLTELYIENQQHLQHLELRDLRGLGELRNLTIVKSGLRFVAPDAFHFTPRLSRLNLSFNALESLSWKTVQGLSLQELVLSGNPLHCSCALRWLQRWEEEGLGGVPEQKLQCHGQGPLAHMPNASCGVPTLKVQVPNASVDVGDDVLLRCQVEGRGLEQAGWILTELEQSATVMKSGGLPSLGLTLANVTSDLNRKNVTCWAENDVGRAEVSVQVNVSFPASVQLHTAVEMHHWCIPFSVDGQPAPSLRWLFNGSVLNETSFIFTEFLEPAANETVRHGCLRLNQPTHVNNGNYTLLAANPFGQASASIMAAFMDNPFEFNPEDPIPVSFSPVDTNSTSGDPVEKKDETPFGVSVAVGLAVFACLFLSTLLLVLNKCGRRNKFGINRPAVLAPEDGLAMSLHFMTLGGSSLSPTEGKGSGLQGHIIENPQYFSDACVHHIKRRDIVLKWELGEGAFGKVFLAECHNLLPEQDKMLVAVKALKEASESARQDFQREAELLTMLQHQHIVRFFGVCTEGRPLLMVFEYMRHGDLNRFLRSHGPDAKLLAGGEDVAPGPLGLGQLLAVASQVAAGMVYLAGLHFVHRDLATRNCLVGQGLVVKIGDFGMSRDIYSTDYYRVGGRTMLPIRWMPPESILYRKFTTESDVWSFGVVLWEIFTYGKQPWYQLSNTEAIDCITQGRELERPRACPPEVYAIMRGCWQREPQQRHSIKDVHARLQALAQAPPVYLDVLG

Row | IC50 (MER kinase) [nM] | IC50 (c-MET kinase) [nM] | IC50 (TRKA kinase) [nM] | Compound
1 | 500 to 5000 | 50 to 500 |  | CCOc1cn(-c2ccc(F)cc2C)nc1C(=O)Nc1ccc(Oc2ncnc3cc(OC)c4c(c23)OCCO4)c(F)c1 [Example 9, 1-(4-fluoro-2-methylphenyl)-N-(3-fluoro-4-((5-methoxy-2,3-dihydro-[1,4]dioxino[2,3-f]quinazolin-10-yl)oxy)phenyl)-4-ethoxy-1H-pyrazole-3-carboxamide]
2 | 50 to 500 | ≤ 50 |  | Cc1cc(F)ccc1-n1ccc(C(=O)Nc2ccc(Oc3ncnc4cc(OCCCN5CCOCC5)c5c(c34)OCCO5)c(F)c2)n1 [Example 10, 1-(4-fluoro-2-methylphenyl)-N-(3-fluoro-4-((5-(3-morpholinopropoxy)-2,3-dihydro-[1,4]dioxino[2,3-f]quinazolin-10-yl)oxy)phenyl)-1H-pyrazole-3-carboxamide]
3 | ≤ 50 | ≤ 50 | 50 to 500 | COc1cc2nccc(Oc3ccc(NC(=O)c4cn(C(C)C)c(=O)n(-c5ccc(F)cc5)c4=O)cc3F)c2c2c1OCCO2 [Example 14, N-(3-fluoro-4-((5-methoxy-2,3-dihydro-[1,4]dioxino[2,3-f]quinolin-10-yl)oxy)phenyl)-3-(4-fluorophenyl)-1-isopropyl-2,4-dioxo-1,2,3,4-tetrahydropyrimidine-5-carboxamide]
4 | 500 to 5000 | 50 to 500 | 50 to 500 | COc1cc2nccc(Oc3ccc(NC(=O)c4ccn(-c5ccc(F)cc5C)n4)cc3F)c2c2c1OCCO2 [Example 23, 1-(4-fluoro-2-methylphenyl)-N-(3-fluoro-4-((5-methoxy-2,3-dihydro-[1,4]dioxino[2,3-f]quinolin-10-yl)oxy)phenyl)-1H-pyrazole-3-carboxamide]
5 | 50 to 500 | 50 to 500 | 50 to 500 | CCOc1cn(-c2ccc(F)cc2C)nc1C(=O)Nc1ccc(Oc2ccnc3cc(OC)c4c(c23)OCCO4)c(F)c1 [Example 25, 1-(4-fluoro-2-methylphenyl)-N-(3-fluoro-4-((5-methoxy-2,3-dihydro-[1,4]dioxino[2,3-f]quinolin-10-yl)oxy)phenyl)-4-ethoxy-1H-pyrazole-3-carboxamide]
6 | 50 to 500 | ≤ 50 | 50 to 500 | COc1cc2nccc(Oc3ccc(NC(=O)c4cn(CC(C)C)c(=O)n(-c5ccc(F)cc5)c4=O)cc3F)c2c2c1OCCO2 [Example 47, N-(3-fluoro-4-((5-methoxy-2,3-dihydro-[1,4]dioxino[2,3-f]quinolin-10-yl)oxy)phenyl)-3-(4-fluorophenyl)-1-isobutyl-2,4-dioxo-1,2,3,4-tetrahydropyrimidine-5-carboxamide]
7 | 50 to 500 | ≤ 50 | 50 to 500 | COc1cc2nccc(Oc3ccc(NC(=O)c4cn(CC5CC5)c(=O)n(-c5ccc(F)cc5)c4=O)cc3F)c2c2c1OCCO2 [Example 48, N-(3-fluoro-4-((5-methoxy-2,3-dihydro-[1,4]dioxino[2,3-f]quinolin-10-yl)oxy)phenyl)-3-(4-fluorophenyl)-1-(cyclopropylmethyl)-2,4-dioxo-1,2,3,4-tetrahydropyrimidine-5-carboxamide]
8 | 50 to 500 | 50 to 500 | 50 to 500 | Cn1cc(C(=O)Nc2ccc(Oc3ccnc4cc(OCC5CC5)c5c(c34)OCCO5)c(F)c2)c(=O)n(-c2ccc(F)cc2)c1=O [Example 84, N-(3-fluoro-4-((5-(cyclopropylmethoxy)-2,3-dihydro-[1,4]dioxino[2,3-f]quinolin-10-yl)oxy)phenyl)-3-(4-fluorophenyl)-1-methyl-2,4-dioxo-1,2,3,4-tetrahydropyrimidine-5-carboxamide]
9 | ≤ 50 | 50 to 500 | 50 to 500 | CC(C)n1cc(C(=O)Nc2ccc(Oc3ccnc4cc(OC5COC5)c5c(c34)OCCO5)c(F)c2)c(=O)n(-c2ccc(F)cc2)c1=O [Example 89, N-(3-fluoro-4-((5-((oxetan-3-yl)oxy)-2,3-dihydro-[1,4]dioxino[2,3-f]quinolin-10-yl)oxy)phenyl)-3-(4-fluorophenyl)-1-isopropyl-2,4-dioxo-1,2,3,4-tetrahydropyrimidine-5-carboxamide]
10 | ≤ 50 | ≤ 50 | 50 to 500 | COc1cc2nccc(Oc3ccc(NC(=O)c4cn(CCCN5CCOCC5)c(=O)n(-c5ccc(F)cc5)c4=O)cc3F)c2c2c1OCCO2 [Example 102, N-(3-fluoro-4-((5-methoxy-2,3-dihydro-[1,4]dioxino[2,3-f]quinolin-10-yl)oxy)phenyl)-3-(4-fluorophenyl)-1-(3-morpholinopropyl)-2,4-dioxo-1,2,3,4-tetrahydropyrimidine-5-carboxamide]
11 | ≤ 50 | 50 to 500 | 500 to 5000 | COc1cc2nccc(Oc3ccc(NC(=O)c4cn(C(C)C)c(=O)n(-c5ccc(C)cc5)c4=O)cc3F)c2c2c1OCCO2 [Example 107, N-(3-fluoro-4-((5-methoxy-2,3-dihydro-[1,4]dioxino[2,3-f]quinolin-10-yl)oxy)phenyl)-3-(4-methylphenyl)-1-isopropyl-2,4-dioxo-1,2,3,4-tetrahydropyrimidine-5-carboxamide]

Row | Compound | IC50 (MER kinase) [nM] | IC50 (c-MET kinase) [nM] | IC50 (TRKA kinase) [nM]
12 | CC(C)COc1cc2nccc(Oc3ccc(NC(=O)c4cn(C)c(=O)n(-c5ccc(F)cc5)c4=O)cc3F)c2c2c1OCCO2 [Example 83, N-(3-fluoro-4-((5-(isobutoxy)-2,3-dihydro-[1,4]dioxino[2,3-f]quinolin-10-yl)oxy)phenyl)-3-(4-fluorophenyl)-1-methyl-2,4-dioxo-1,2,3,4-tetrahydropyrimidine-5-carboxamide] | 50 to 500 | 500 to 5000 | 50 to 500
